Source: US8026218B2, “Bifunctional analgesic compounds for opioid receptor agonists and neurokinin-1 receptor antagonists” (The University of Arizona, priority 2006, dated 2011)
Read-outs that look alike come from different tables or passages of the source. Peptide text beside a SMILES is read from it.

Key:
[1] = target: T1, human δ opioid receptors (hDOR) (Homo sapiens, UniProt P41143); assay: Radioligand competition binding, [3H]DPDPE, hDOR membranes
T1 construct: expressed in transfected cells; host or cells: HN9.10 neuroblastoma cell line, pCDNA3, neomycin-selected clones

[2] = target: T2, rat μ opioid receptors (rMOR) (Rattus norvegicus, UniProt P33535); assay: Radioligand competition binding, [3H]DAMGO, rMOR membranes; conditions: for LogIC50, rMOR, [3H]DAMGO: membranes from transfected HN9.10 cells
T2 construct: expressed in transfected cells; host or cells: HN9.10 neuroblastoma cell line, pCDNA3, neomycin-selected clones

[3] = target: T3, rat NK1 (rNK1) receptor (Rattus norvegicus, UniProt P14600); assay: Radioligand competition binding, [3H]substance P, rNK1/CHO membranes; conditions: for IC50: membranes from transfected CHO cells
T3 construct: expressed in transfected cells; host or cells: CHO (rNK-1/CHO cell line from Dr. James Krause)

[4] = target: T1, human δ opioid receptors (hDOR); assay: [35S]GTP-γ-S binding assay, hDOR; assay type: biochemical
[5] = target: T2, rat μ opioid receptors (rMOR); assay: biochemical; assay type: biochemical
[6] = target: T4, δ opioid receptors (MVD) (Mus musculus, UniProt P32300); assay: Mouse isolated vas deferens (MVD) assay, opioid agonist
T4 construct: from tissue; host or cells: mouse (ICR) isolated vas deferens

[7] = target: T5, human NK1 receptor (hNK1) (Homo sapiens, UniProt P25103); assay: Radioligand competition binding, [3H]-Substance P, hNK1
T5 construct: expressed in transfected cells

[8] = system: μ opioid receptors (GPI); assay: Guinea pig isolated ileum (GPI) assay, opioid agonist; set-up: GPI/LMMP Opioid(m) Agonist, % inh.: unit of the concentration uncertain;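 further: inhibition of electrically evoked contractions (0.1 Hz, 0.4 msec, supramaximal voltage) in organ baths at 37 °C, contraction height 3 min after each cumulative dose versus the 1 min before dosing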
[9] = target: T6, Substance P receptors (guinea pig NK1) (Cavia porcellus, UniProt P30547); assay: Guinea pig isolated ileum (GPI) assay with substance P stimulation in presence of 1 μM naloxone; conditions: for activation at 1 µM: read-out: Substance P GPI agonist (A50), contraction relative to initial muscle contraction with KCl
T6 construct: from tissue; host or cells: guinea pig (Hartley) ileum LMMP, 1 μM naloxone present

[10] = Table 27, read-out: Affinity rMOR (Ki; nM)
[11] = Table 39, read-out: Affinity rMOR (Ki; nM)
[12] = IC50, rNK1, Substance P radioligand
[13] = read-out: EC50, hDOR, [35S]GTP-γ-S binding
[14] = Table 27, read-out: GTP binding rMOR EC50
[15] = Table 27, read-out: GTP binding rMOR Emax (%)
[16] = Table 39, read-out: GTP binding rMOR EC50
[17] = Table 39, read-out: GTP binding rMOR Emax
[18] = net total bound/basal binding × 100, read-out: Emax, rMOR, [35S]GTP-γ-S binding
[19] = read-out: EC50, rMOR, [35S]GTP-γ-S binding
[20] = Table 28, read-out: MVD Opioid (d) Agonist (IC50; nM)
[21] = Table 39, read-out: MVD opioid(delta) agonist (IC50; nM)
[22] = electrically stimulated isolated tissue, read-out: MVD (δ), IC50
[23] = Substance P antagonist, GPI, Ke, in the presence of 1 μM naloxone

T4 sequence (P32300 whole entry): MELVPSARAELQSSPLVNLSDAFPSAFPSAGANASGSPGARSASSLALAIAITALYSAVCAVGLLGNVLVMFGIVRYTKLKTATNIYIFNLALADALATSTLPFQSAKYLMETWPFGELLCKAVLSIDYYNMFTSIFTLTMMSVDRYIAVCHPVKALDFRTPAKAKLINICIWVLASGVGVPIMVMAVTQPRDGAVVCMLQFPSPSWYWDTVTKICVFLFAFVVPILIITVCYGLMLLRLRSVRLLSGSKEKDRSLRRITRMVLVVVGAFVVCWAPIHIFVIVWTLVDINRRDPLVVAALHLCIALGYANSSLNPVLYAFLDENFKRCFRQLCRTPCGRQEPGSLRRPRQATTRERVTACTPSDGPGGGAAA
T3 sequence (P14600 whole entry): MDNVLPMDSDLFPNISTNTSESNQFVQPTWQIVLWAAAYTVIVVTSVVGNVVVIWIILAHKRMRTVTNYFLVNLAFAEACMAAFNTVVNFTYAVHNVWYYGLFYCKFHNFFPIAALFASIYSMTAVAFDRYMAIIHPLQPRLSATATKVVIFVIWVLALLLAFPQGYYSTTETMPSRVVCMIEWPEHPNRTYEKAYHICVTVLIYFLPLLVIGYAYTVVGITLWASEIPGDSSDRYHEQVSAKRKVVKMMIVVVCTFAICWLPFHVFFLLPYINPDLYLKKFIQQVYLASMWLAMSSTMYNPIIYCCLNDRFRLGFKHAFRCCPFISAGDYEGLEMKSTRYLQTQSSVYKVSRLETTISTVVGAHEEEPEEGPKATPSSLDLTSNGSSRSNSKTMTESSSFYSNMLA
T1 sequence (P41143 whole entry): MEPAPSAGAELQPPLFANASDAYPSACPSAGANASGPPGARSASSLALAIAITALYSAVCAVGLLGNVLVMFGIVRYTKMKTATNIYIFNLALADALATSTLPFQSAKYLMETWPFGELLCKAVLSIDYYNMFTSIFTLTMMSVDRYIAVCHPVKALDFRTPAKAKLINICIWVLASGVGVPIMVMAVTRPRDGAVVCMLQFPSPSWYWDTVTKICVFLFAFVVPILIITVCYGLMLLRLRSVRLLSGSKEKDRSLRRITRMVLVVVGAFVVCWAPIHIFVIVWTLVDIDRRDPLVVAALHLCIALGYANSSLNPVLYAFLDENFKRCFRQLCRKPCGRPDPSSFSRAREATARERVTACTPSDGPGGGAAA
T6 sequence (P30547 whole entry): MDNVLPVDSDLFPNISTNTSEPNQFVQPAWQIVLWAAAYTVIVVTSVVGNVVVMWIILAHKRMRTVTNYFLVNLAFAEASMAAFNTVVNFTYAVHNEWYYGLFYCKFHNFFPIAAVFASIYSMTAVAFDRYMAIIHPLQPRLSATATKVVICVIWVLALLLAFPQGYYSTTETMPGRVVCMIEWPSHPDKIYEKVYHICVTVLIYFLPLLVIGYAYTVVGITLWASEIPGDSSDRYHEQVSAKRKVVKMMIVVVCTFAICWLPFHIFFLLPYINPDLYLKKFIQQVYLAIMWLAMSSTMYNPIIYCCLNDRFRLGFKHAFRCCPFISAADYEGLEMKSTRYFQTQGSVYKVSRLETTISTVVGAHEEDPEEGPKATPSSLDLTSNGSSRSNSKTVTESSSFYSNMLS
T2 sequence (P33535 whole entry): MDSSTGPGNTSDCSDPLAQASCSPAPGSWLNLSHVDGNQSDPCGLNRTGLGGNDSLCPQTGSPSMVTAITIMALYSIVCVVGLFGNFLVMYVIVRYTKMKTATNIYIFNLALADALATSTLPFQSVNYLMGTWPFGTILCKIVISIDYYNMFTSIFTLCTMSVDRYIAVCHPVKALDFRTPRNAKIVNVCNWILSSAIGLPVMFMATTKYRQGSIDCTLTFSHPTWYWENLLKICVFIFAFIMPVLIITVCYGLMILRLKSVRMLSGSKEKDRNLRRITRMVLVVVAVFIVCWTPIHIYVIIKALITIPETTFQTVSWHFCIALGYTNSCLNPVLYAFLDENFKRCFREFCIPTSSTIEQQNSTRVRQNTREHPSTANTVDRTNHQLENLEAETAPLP
T5 sequence (P25103 whole entry): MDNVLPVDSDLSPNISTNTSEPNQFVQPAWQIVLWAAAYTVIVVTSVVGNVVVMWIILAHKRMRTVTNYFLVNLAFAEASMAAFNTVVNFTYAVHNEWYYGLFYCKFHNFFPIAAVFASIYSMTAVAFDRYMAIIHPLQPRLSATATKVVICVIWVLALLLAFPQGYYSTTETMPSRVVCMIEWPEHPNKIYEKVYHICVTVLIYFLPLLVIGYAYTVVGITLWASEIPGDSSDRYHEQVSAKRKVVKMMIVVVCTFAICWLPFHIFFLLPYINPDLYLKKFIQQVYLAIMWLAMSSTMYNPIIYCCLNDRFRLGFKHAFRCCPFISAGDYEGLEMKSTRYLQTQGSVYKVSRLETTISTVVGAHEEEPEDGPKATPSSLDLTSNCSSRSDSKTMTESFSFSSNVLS

CC(C)C[C@H](NC(=O)[C@H](Cc1ccccc1)NC(=O)CNC(=O)[C@@H](C)NC(=O)[C@@H](N)Cc1ccc(O)cc1)C(=O)N[C@@H](Cc1c[nH]c2ccccc12)C(=O)OCc1cc(C(F)(F)F)cc(C(F)(F)F)c1 [NP37] (HELM PEPTIDE1{Y.[dA].G.F.L.W.[FC(F)(F)c1cc(CO[*:1])cc(C(F)(F)F)c1]}$$$$V2.0; N-terminus assumed)
Ki [1]: 2.9 nM | Ki [2]: 23.3 nM | Ki ([3]; Affinity (Ki, nM) rNK1, Table 32): 0.29 nM | EC50 ([4]; Table 32, read-out: GTP hDOR EC50): 4.8 nM | Emax ([4]; Table 32, read-out: GTP hDOR EMax): 60% | EC50 ([5]; Table 32, read-out: GTP rMOR EC50): 14 nM | Emax ([5]; Table 32, read-out: GTP rMOR EMax): 54% | IC50 [6]: 25.7 nM

C[C@@H](NC(=O)[C@@H](N)Cc1ccc(O)cc1)C(=O)N[C@@H](Cc1c[nH]c2ccccc12)C(=O)OCc1cc(C(F)(F)F)cc(C(F)(F)F)c1 [NP43]
Ki ([1]; Table 33, read-out: Ki (nM) hDOR): 100 nM | Ki ([2]; Table 33, read-out: Ki (nM) rMOR): 178 nM | Ki ([3]; Ki (nM) rNK1, Table 33): 2.94 nM | Ki [7]: 0.004 nM | EC50 ([4]; Table 33, read-out: GTP EC50 (nM) hDOR): 90.9 nM | EC50 ([5]; Table 33, read-out: GTP EC50 (nM) rMOR): 168 nM | MVD δ-agonist, % at 1 μM ([6]; Table 36, at 1 μM): 5.5% at 1 μM | GPI μ-agonist, % at 1 μM ([8]; Table 36, at 1 μM): 3.3% at 1 μM | Kb ([9]; GPI SP-antagonist Ke (nM), Table 36): 49.4 nM

CC(C)C[C@H](NC(=O)[C@@H]1CCCN1C(=O)[C@H](Cc1ccccc1)NC(=O)[C@H](Cc1ccccc1)NC(=O)CNC(=O)[C@@H](C)NC(=O)[C@@H](N)Cc1ccc(O)cc1)C(=O)N[C@@H](Cc1c[nH]c2ccccc12)C(=O)OCc1cc(C(F)(F)F)cc(C(F)(F)F)c1 [TY003, H-Tyr-D-Ala-Gly-Phe-Phe-Pro-Leu-Trp-O-3,5-Bzl(CF3)2]
Ki [1]: 14.6 nM | Ki(μ)/Ki(δ) ([1]; binding, rMOR vs hDOR): 1.9 | LogIC50, hDOR, [3H]DPDPE ([1]; membranes from transfected HN9.10 cells): −7.50 ± 0.14 | Ki [2, 10]: 28.3 nM | Ki [2, 11]: 28.3 nM | LogIC50, rMOR, [3H]DAMGO [2]: −7.22 ± 0.10 | Ki ([2]; read-out: Ki, rMOR, [3H]DAMGO): 28.3 nM | IC50 [3, 12]: 19.3 nM | IC50 ([3]; LogIC50, rNK1, Substance P radioligand): 19.1 nM | Ki(μ)/Ki(δ) [4]: 2.8 | LogEC50, hDOR, [35S]GTP-γ-S binding [4]: −7.68 ± 0.20 | EC50 [4, 13]: 20.8 nM | Emax ([4]; read-out: Emax, hDOR, [35S]GTP-γ-S binding): 39% | EC50 ([4]; read-out: GTP binding hDOR EC50): 20.8 nM | Emax ([4]; read-out: GTP binding hDOR Emax): 39% | Emax ([4]; read-out: GTP binding hDOR Emax (%)): 39% | LogEC50, rMOR, [35S]GTP-γ-S binding [5]: −7.23 ± 0.18 | EC50 [5, 14]: 58.7 nM | Emax [5, 15]: 36.3% | EC50 [5, 16]: 58.7 nM | Emax [5, 17]: 36.3% | Emax [5, 18]: 41% | EC50 [5, 19]: 58.7 nM | IC50 [6, 20]: 905 nM | IC50 [6, 21]: 905 nM | IC50 [6, 22]: 905 ± 186 nM | GPI/LMMP Opioid(m) Agonist, % inh. ([8]; Table 28, at 1 (unit uncertain)): 7% inh. at 1 mM | GPI/LMMP opioid(mu) Antagonist ([8]; Table 39): none | GPI/LMMP opioid(mu) agonist, % at 1 uM ([8]; Table 39, at 1 uM): 6.6% @ 1 uM | GPI (μ), effect at single concentration ([8]; at 1 μM): 7% at 1 μM^b | Kb [9, 23]: 14.4 ± 4.9 nM | GPI/LMMP SP Agonist (IC50; nM) ([9]; Table 39, concentration not given): none | activation at 1 µM [9]: 0%

CC(C)C[C@H](NC(=O)[C@@H]1CCCN1C(=O)CNC(=O)[C@H](Cc1ccccc1)NC(=O)CNC(=O)[C@@H](C)NC(=O)[C@@H](N)Cc1ccc(O)cc1)C(=O)N[C@@H](Cc1c[nH]c2ccccc12)C(=O)OCc1cc(C(F)(F)F)cc(C(F)(F)F)c1 [TY006, H-Tyr-D-Ala-Gly-Phe-Gly-Pro-Leu-Trp-O-3,5-Bzl(CF3)2] (HELM PEPTIDE1{Y.[dA].G.F.G.P.L.W.[FC(F)(F)c1cc(CO[*:1])cc(C(F)(F)F)c1]}$$$$V2.0)
Ki ([1]; Table 27, read-out: Affinity hDOR (Ki; nM)): 36.1 nM | Ki ([1]; Table 39, read-out: Affinity hDOR (Ki; nM)): 36.1 nM | Ki ([1]; read-out: Ki, hDOR, [3H]DPDPE): 36.1 nM | Ki [2, 10]: 27 nM | Ki [2, 11]: 27 nM | LogIC50, rMOR, [3H]DAMGO [2]: −7.24 ± 0.15 | Ki ([2]; read-out: Ki, rMOR, [3H]DAMGO): 27 nM | IC50 [3, 12]: 15.6 nM | Ki [7]: 0.016 nM | LogEC50, hDOR, [35S]GTP-γ-S binding [4]: −7.30 ± 0.24 | EC50 ([4]; Table 27, read-out: GTP binding hDOR EC50): 50.2 nM | Emax ([4]; Table 27, read-out: GTP binding hDOR Emax (%)): 33.6% | EC50 ([4]; Table 39, read-out: GTP binding hDOR EC50): 50.2 nM | Emax ([4]; Table 39, read-out: GTP binding hDOR Emax): 33.6% | Emax ([4]; net total bound/basal binding × 100, read-out: Emax, hDOR, [35S]GTP-γ-S binding): 35% | EC50 [4, 13]: 50.2 nM | LogEC50, rMOR, [35S]GTP-γ-S binding [5]: −7.38 ± 0.20 | EC50 [5, 14]: 41.7 nM | Emax [5, 15]: 35.9% | EC50 [5, 16]: 41.7 nM | Emax [5, 17]: 35.9% | Emax [5, 18]: 39% | EC50 [5, 19]: 41.7 nM | IC50 [6]: 172 ± 26 nM | IC50 [6, 20]: 172 nM | IC50 [6, 21]: 172 nM | IC50 [6, 22]: 171 nM | IC50 ([8]; Table 28, read-out: GPI/LMMP Opioid(m) Agonist (IC50; nM)): 384 nM | IC50 ([8]; Table 39, read-out: GPI/LMMP opioid(mu) agonist (IC50; nM)): 384 nM | IC50 ([8]; electrically stimulated isolated tissue, read-out: GPI (μ), IC50): 384 nM | IC50 [9]: 5.4 nM | Kb [9, 23]: 5.4 ± 1.4 nM | activation at 1 µM [9]: 0%
